# Measured values taken from patent EP4775570A1, “CYP11A1 INHIBITOR, PREPARATION METHOD THEREFOR AND USE THEREOF” (Shenzhen Zhongge Biological Technology Co., Ltd., priority 2023, dated 2025).
# Biological target: T1, CYP11A1 (Homo sapiens, UniProt P05108)
# T1 construct: host or cells: NCI-H295R
# T1 sequence (P05108 40-521): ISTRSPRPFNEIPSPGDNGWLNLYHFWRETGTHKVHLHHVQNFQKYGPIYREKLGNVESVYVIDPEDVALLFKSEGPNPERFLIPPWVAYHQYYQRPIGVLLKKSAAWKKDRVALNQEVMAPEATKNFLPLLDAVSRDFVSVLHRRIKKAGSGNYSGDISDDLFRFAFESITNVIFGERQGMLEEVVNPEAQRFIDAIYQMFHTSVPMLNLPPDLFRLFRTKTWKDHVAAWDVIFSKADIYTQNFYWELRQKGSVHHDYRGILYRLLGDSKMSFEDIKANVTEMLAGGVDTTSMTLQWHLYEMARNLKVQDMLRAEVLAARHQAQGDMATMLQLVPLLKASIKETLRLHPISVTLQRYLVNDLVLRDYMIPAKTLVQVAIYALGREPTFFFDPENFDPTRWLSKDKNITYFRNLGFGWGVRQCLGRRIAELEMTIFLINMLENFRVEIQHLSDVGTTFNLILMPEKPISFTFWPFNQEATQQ
# Assay: NCI-H295R cellular pregnenolone biosynthesis inhibition assay (ELISA method)
# Assay type: cell-based
# Details: NCI-H295R cells, 3 days incubation, pregnenolone in cell supernatant by ELISA; read-out: IC50
# Description: The experiment aims to test the inhibitory effect of the compounds of the present disclosure on cellular pregnenolone biosynthesis, and to assess the inhibitory effect of the compounds on CYP11A1 target based on their IC50 values.
# NCI-H295R cells (MINGZHOUBIO, MZ-2138) cultured in NCI-H295R complete medium (MINGZHOUBIO, MCM-0399).
# Using culture medium, NCI-H295R cells were seeded into a new 384-well cell culture plate (Greiner, 781091) at a density of 5,000 cells per well, with 45µL of cell suspension per well. The test compounds were prepared by adding 5µL of compound solution at 10× concentration to each well, to a maximum final concentration of 10µM, followed by 3× serial dilution for 10 points, with a final DMSO concentration of 0.1%, centrifuging at 1,000 rpm for 1 minute at room temperature, and then incubating in a 5% CO2 cell incubator at 37°C for 3 days.
# Pregnenolone ELISA kit (Abnova, KA1912) was used for detecting the content of pregnenolone in the supernatant of cell culture. Before detection, the reagents were allowed to come back to room temperature for 1 hour. After taking out the 384-well plate, the cellular supernatant was pipetted and subjected to 5× dilution with the Assay Buffer provided in the kit. A working solution of competitive molecule and a washing solution in accordance with the instructions was prepared. 50µL of diluted cellular supernatant were pipetted into the 96-well plate provided in the ELISA kit, added with 100µL of working solution of competitive molecule per well and the plate was incubated at room temperature for 1.5 hours. After discarding the liquid, the plate was washed with 300µL of washing solution per well three times and dried. After adding 150 µL of substrate chromogenic solution per well, the plate was incubated at room temperature for 10-15 minutes. After adding 50 µL of termination solution per well, the plate was incubated at room temperature for 10-15 minutes and read for absorbance at 450nm with Envision HTS Multilabel Reader.
# The wells added with 1µM ODM-208 were defined as 100% inhibition (positive control), the wells containing DMSO at a final concentration of 0.1% were defined as 0% inhibition (negative control), and inhibitory ratio = (absorbance of tested sample - average absorbance of negative control)/(average absorbance of positive control - average absorbance of negative control)*100%. The data were subjected to four-parameter fitting using GraphPad Prism to calculate the IC50 values of the compounds.
row,Compound,IC50
1,Fc1cc(OCC2CCNCC2)c(Br)cc1CN1Cc2ccccc2C1 [compound 56],> 300 nM
2,COc1nc(CN2Cc3ccccc3C2)c(F)cc1CCC1CCN(S(C)(=O)=O)CC1 [compound 89],100 to 300 nM
3,[2H]C([2H])(c1c(F)cc(CCC2CCN(S(C)(=O)=O)CC2)c(=O)n1C)N1Cc2ccccc2C1 [compound 116],< 100 nM
4,Cn1c(CN2Cc3ccc(F)cc3C2)c(F)cc(CCC2CCN(S(C)(=O)=O)CC2)c1=O [compound 101],> 300 nM
5,COc1c(CCC2CCN(S(C)(=O)=O)CC2)cc(F)c(CN2Cc3ccccc3C2)c1F [compound 64],< 100 nM
6,Cn1c(CN2Cc3ccccc3C2)c(F)cc(C=CC2CCN(C(=O)OC(C)(C)C)CC2)c1=O [compound 105],< 100 nM
7,COc1cc(CN2Cc3ccccc3C2)ccc1CCC1CCN(S(=O)(=O)C(F)(F)F)CC1 [compound 77],100 to 300 nM
8,CNC(=O)c1cc(CN2Cc3ccccc3C2)ccc1OCC1CCN(S(C)(=O)=O)CC1 [compound 24],> 300 nM
9,Cn1c(CN2Cc3cccc(F)c3C2)c(F)cc(CCC2CCN(S(C)(=O)=O)CC2)c1=O [compound 100],> 300 nM
10,CC(C)Oc1cc(CN2Cc3ccccc3C2)ccc1OCC1CCN(S(C)(=O)=O)CC1 [compound 21],< 100 nM
11,CS(=O)(=O)N1CCC(CCc2ccc(CN3Cc4ccccc4C3)cc2C#N)CC1 [compound 54],< 100 nM
12,CC(=O)N1CCC(CCSc2ccc(CN3Cc4ccccc4C3)cc2F)CC1 [compound 49],< 100 nM
13,CC(C)Oc1cc(CN2Cc3ccccc3C2)ccc1CCC1CCN(S(C)(=O)=O)CC1 [compound 76],100 to 300 nM
14,COc1cc(CN2Cc3ccncc3C2)ccc1CCC1CCN(S(C)(=O)=O)CC1 [compound 63],< 100 nM
15,CCC(C)Oc1cc(CN2Cc3ccccc3C2)c(F)cc1OCC1CCN(S(C)(=O)=O)CC1 (stereo not drawn) [compound 12],< 100 nM
16,Cn1c(CN2Cc3ccccc3C2)c(F)cc(CCC2CCCN(S(C)(=O)=O)C2)c1=O (stereo not drawn) [compound 91],> 300 nM
17,CS(=O)(=O)N1CCC(COc2cc(F)c(CN3Cc4ccccc4C3)cc2Br)CC1 [compound 25],< 100 nM

row,Compound,IC50
1,CS(=O)(=O)N1CCC(COc2ccc(CN3Cc4ccccc4C3)cn2)CC1 [compound 7],> 300 nM
2,COc1cc(CN2Cc3ccccc3C2)ccc1CCN1CCN(S(C)(=O)=O)CC1 [compound 48],100 to 300 nM
3,CS(=O)(=O)N1CCC(COc2ccc(CN3Cc4ccccc4C3)cc2-c2ccco2)CC1 [compound 36],> 300 nM
4,CS(=O)(=O)N1CCC(COc2cc(F)c(CN3Cc4ccccc4C3)cc2O)CC1 [compound 52],< 100 nM
5,CCc1cc(CN2Cc3ccccc3C2)ccc1OCC1CCN(S(C)(=O)=O)CC1 [compound 13],< 100 nM
6,CC(=O)N1CCN(c2cccc(Oc3ccc(CN4Cc5ccccc5C4)cc3F)c2)CC1 [compound 47],> 300 nM
7,CS(=O)(=O)N1CCC(CCc2cnc(CN3Cc4ccccc4C3)s2)CC1 [compound 87],> 300 nM
8,CC(C)c1cc(CN2Cc3ccccc3C2)ccc1CCC1CCN(S(C)(=O)=O)CC1 [compound 74],< 100 nM
9,CC(C)c1cc(CN2Cc3ccccc3C2)c(F)cc1OCC1CCN(S(C)(=O)=O)CC1 [compound 31],> 300 nM
10,Cn1c(CN2Cc3ccccc3C2)c(F)cc(C(=O)CC2CCN(C(=O)OC(C)(C)C)CC2)c1=O [compound 125],< 100 nM
11,CS(=O)(=O)N1CCC(CCc2ccc(CN3Cc4ccccc4C3)cc2F)CC1 [compound 40],< 100 nM
12,CCS(=O)(=O)N1CCC(C=Cc2cc(F)c(CN3Cc4ccccc4C3)n(C)c2=O)CC1 [compound 110],< 100 nM
13,CS(=O)(=O)N1CCC(CN2CCOc3cc(CN4Cc5ccccc5C4)ccc32)CC1 [compound 57],> 300 nM
14,COc1nc(CN2Cc3ccccc3C2)ccc1OCC1CCN(S(C)(=O)=O)CC1 [compound 4],100 to 300 nM
15,Cn1c(CN2Cc3ccccc3C2)c(F)cc(-c2ccc3c(c2)CCN(S(C)(=O)=O)C3)c1=O [compound 120],< 100 nM
16,C=CS(=O)(=O)N1CCC(CCc2ccc(CN3Cc4ccccc4C3)cc2OC)CC1 [compound 82],100 to 300 nM
